Results on nine molecules are retold here after patent US7365055B2, “Derivatives of morphine-6-glucuronide, pharmaceutical compositions containing them, their preparation method and their uses” (BTG International Limited, priority 2003, dated 2008).

For assay [1], the system named is mouse. The assay can be described thus: tail flick test (analgesic effect). Particulars: mice, intravenous route. Format: in vivo.
The target in assay [2] is T1, κ receptors (Cavia porcellus, UniProt P41144).
T1 construct: homogenates of guinea-pig cerebellum membrane; from tissue; host or cells: guinea-pig cerebellum membrane homogenate
The assay can be described thus: affinity to the κ receptors, [3H]U 69593 binding, guinea-pig cerebellum membrane homogenates. Particulars: 0.7 nM [3H]U 69593, 80 minutes at 22° C. The protocol:
(§1) The affinity of M6G and of morphine was compared to that of the M6G derivatives according to the invention for the opioid receptors μ (mu) and κ (kappa).
Concentrations of M6G, morphine and the compound according to the invention of 10^−14 to 10^−6 M were used.
(§2) The non-specific binding was determined by means of the addition to the labelled ligands of naloxone 10 μM.
(§3) After incubation, the samples were filtered on glass fibres (GF/B, Packard) previously incubated with 0.3% polyethyleneimine and rinsed several times with 50 mM of cold Tris-HCl using a “96-sample cell harvester” (Unifilter, Packard). The filters were then dried and the radioactivity counted.

Assay [3] addresses T2, μ receptors (Rattus norvegicus, UniProt P33535).
T2 construct: homogenates of rat cerebral cortex membrane; from tissue; host or cells: rat cerebral cortex membrane homogenate
Briefly: affinity to the μ receptors, [3H]DAMGO binding, rat cerebral cortex membrane homogenates. The protocol:
as §1, §2, §3

Assay [4] concerns opioid receptors. To be noted: background statement; cited from earlier work.
Where [5] appears, read: Affinity to the K receptors (Ki).

Where two headings read alike, the source gives them in different places.

T2 sequence (P33535 whole entry): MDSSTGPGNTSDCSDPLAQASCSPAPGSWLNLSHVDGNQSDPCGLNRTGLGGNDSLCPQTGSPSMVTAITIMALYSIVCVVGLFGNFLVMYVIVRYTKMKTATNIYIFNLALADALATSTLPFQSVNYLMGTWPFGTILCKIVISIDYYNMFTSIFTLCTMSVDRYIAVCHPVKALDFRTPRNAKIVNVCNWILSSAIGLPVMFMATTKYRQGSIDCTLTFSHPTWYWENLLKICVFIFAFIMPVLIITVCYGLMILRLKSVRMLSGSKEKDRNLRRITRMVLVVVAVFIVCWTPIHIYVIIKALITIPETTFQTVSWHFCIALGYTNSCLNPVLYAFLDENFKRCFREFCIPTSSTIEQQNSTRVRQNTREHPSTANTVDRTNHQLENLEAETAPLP
T1 sequence (P41144 whole entry): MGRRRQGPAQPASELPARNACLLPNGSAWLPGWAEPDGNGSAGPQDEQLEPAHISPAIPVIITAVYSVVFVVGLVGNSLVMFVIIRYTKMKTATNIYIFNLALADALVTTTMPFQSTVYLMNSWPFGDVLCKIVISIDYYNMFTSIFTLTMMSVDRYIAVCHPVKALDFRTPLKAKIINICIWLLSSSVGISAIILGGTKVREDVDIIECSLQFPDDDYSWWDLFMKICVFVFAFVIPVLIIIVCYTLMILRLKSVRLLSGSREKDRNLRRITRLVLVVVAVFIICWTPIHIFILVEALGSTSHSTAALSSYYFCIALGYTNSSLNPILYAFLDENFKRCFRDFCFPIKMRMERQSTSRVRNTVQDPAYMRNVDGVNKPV

As for `CN1CC[C@]23c4c5ccc(O)c4O[C@H]2[C@@H](O)C=C[C@H]3[C@H]1C5` [Morphine], in assay [1], the “ED50, the dose which induces 50% of the analgesic effect” value was determined as 2.65 mg eq./kg and the “duration of the action (analgesic activity)” value (“duration of the action” for short) is given as “approximately 100 minutes”.

Usually Ki stands for the equilibrium dissociation constant of an inhibitor or competing ligand from its target. In the case of `CN1CC[C@]23c4c5ccc(O)c4O[C@H]2[C@@H](O[C@@H]2OC(C(=O)NCCS)[C@@H](O)C(O)C2O)C=CC3[C@H]1C5` (stereo partly drawn) [M6G-cysteamide], the Ki in assay [2] (setting [5]) was 4.49 nM; in assay [3], 2.35 nM.

As for `CCOC(=O)C(CS)NC(=O)C1OC(OC2C=CC3C4Cc5ccc(O)c6c5C3(CCN4C)C2O6)C(O)C(O)C1O` (stereo not drawn) [Example M6G-Cys-OEt, M6G-Cys-OEt], the Ki in assay [2] (setting [5]) was 11.2 nM; in assay [3], 1.17 nM.

For the molecule `CCN(CC)C(=O)C(CS)NC(=O)C1OC(OC2C=CC3C4Cc5ccc(O)c6c5C3(CCN4C)C2O6)C(O)C(O)C1O` (stereo not drawn) [Example M6G-Cys-DEA, M6G-Cys-DEA], the inhibition constant (Ki) amounted to 1.9 nM in assay [2] (setting [5]) and 0.36 nM in assay [3].

Take `CN1CC[C@]23c4c5ccc(O[C@@H]6O[C@H](C(=O)O)[C@@H](O)[C@H](O)[C@H]6O)c4O[C@H]2[C@@H](O)C=C[C@H]3[C@H]1C5` [Example M3G, morphine-3-glucuronide]: the “affinity for the opioid receptors” value in assay [4] is “no affinity”.

Regarding `CN1CCC23c4c5ccc(O)c4OC2C(OC2OC(C(=O)O)C(O)C(O)C2O)C=CC3C1C5` (stereo not drawn) [Example M6G, morphine-6-glucuronide], affinity in assay [2] (setting [5]) was put at a Ki of 224 nM. Also, in assay [1], the “ED50, the dose which induces 50% of the analgesic effect” value turned out to be 0.55 mg eq./kg and the “duration of the action” value was “approximately 100 minutes”. The molecule further returned a Ki in assay [3] of 13.6 nM. The “affinity for the opioid receptors” value in assay [4] is recorded as “high affinity”.

Regarding `CN1CC[C@]23c4c5ccc(O)c4O[C@H]2[C@@H](O[C@@H]2O[C@H](C(=O)NCCSSCCNC(=O)[C@H]4O[C@@H](O[C@H]6C=CC7[C@H]8Cc9ccc(O)c%10c9[C@@]7(CCN8C)[C@H]6O%10)[C@H](O)[C@@H](O)[C@@H]4O)[C@@H](O)[C@H](O)[C@H]2O)C=CC3[C@H]1C5` (stereo partly drawn) [M6G-Cya-Cya-M6G], the figures for the Ki in assay [2] (setting [5]) and in assay [3] were 6.22 nM and 0.38 nM, respectively. In addition, the “duration of the action” value in assay [1] is 360 min.

On to `COC(=O)C(CS)NC(=O)C1OC(OC2C=CC3C4Cc5ccc(O)c6c5C3(CCN4C)C2O6)C(O)C(O)C1O` (stereo not drawn) [Example M6G-Cys-OMe, M6G-Cys-OMe], for which the Ki amounted to 14 nM in assay [2] (setting [5]) and 1.04 nM in assay [3].

Turning to “M6G-Cya-Cya-PEG20000 [M6G-Cya-Cya-PEG200000]”, the inhibition constant (Ki) in assay [2] (read-out: Affinity to the K receptors (Ki)) is 0.72 nM; in assay [3] (rat cerebral cortex membrane, 1 nM [3H]DAMGO, 60 minutes at 22° C., read-out: Affinity to the μ receptors (Ki)) it was 0.92 nM.
